Experimental findings from ChEMBL document CHEMBL1201862, “PubChem BioAssay data set” (2004) are described below.

Experiment [1] deals with Tyrosine-protein kinase JAK2 (Homo sapiens, UniProt O60674). Format: functional.
Experiment [2] addresses Serine/threonine-protein kinase TBK1 (Homo sapiens, UniProt Q9UHD2). In words: Navigating the Kinome. Panel member name: TBK1. The class given is functional.
Experiment [3] concerns the target Tyrosine-protein kinase SYK (Homo sapiens, UniProt P43405). Format: functional.
Experiment [4] deals with Serine/threonine-protein kinase D3 (Homo sapiens, UniProt O94806). The class given is functional.
Chain of Serine/threonine-protein kinase D3 (O94806 whole entry): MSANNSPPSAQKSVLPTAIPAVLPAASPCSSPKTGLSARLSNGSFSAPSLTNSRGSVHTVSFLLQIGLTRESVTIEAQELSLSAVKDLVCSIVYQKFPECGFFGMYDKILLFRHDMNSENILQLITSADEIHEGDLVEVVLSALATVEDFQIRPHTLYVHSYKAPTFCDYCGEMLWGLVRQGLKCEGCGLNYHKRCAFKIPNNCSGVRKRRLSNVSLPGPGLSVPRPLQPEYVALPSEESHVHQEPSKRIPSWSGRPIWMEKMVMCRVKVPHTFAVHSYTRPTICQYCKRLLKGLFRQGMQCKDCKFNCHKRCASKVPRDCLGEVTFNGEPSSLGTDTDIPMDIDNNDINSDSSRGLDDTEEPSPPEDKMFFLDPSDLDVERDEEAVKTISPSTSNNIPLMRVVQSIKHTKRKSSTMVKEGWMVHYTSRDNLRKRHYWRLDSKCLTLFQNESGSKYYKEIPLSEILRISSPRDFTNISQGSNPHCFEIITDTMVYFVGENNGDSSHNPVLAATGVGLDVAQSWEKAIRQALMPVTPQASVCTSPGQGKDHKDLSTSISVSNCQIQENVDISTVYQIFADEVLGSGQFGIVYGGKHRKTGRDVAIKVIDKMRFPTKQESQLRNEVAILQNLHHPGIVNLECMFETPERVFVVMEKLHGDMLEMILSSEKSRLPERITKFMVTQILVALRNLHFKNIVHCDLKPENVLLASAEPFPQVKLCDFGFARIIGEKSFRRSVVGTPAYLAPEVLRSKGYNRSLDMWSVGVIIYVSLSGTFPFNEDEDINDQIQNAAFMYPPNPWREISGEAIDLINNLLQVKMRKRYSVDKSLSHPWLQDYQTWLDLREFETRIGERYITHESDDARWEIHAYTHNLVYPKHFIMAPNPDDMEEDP
Experiment [5] has as its target MAP kinase-activated protein kinase 2 (Homo sapiens, UniProt P49137). The class given is functional.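 Note: measured as one member of a kinome-wide kinase panel.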
Experiment [6] has as its target Cell division cycle 7-related protein kinase (Homo sapiens, UniProt O00311). The class given is functional.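 Note: value obtained from a kinome-wide kinase panel.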
Experiment [7] has as its target Casein kinase II subunit alpha (Homo sapiens, UniProt P68400). Format: functional.
Experiment [8] has as its target Serine/threonine-protein kinase PAK 4 (Homo sapiens, UniProt O96013). Format: functional.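 Note: value obtained within a kinome profiling panel in which PAK4 was one of the panel members.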
The target in experiment [9] is Tyrosine-protein kinase Lyn (Homo sapiens, UniProt P07948). Format: functional.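 Note: lyn as one member of a kinase panel.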
Experiment [10] has as its target Serine/threonine-protein kinase pim-3 (Homo sapiens, UniProt Q86V86). The class given is functional.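 Note: value obtained as one member of a broad kinase panel profiling effort.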
Experiment [11] concerns the target Non-receptor tyrosine-protein kinase TYK2 (Homo sapiens, UniProt P29597). Format: functional.
In the next experiment the target is Activated CDC42 kinase 1 (Homo sapiens, UniProt Q07912). In words: Navigating the Kinome. Panel member name: ACK1. The class given is functional.
Experiment [12] deals with Cyclin-dependent kinase 5 (Homo sapiens, UniProt Q00535). The class given is functional.
The target of experiment [13] is Insulin-like growth factor 1 receptor (Homo sapiens, UniProt P08069). The experiment is described as follows: Navigating the Kinome. Panel member name: IGF1R. The class given is functional.
The target of experiment [14] is Mitogen-activated protein kinase 1 (Homo sapiens, UniProt P28482). Format: functional.
Another experiment addresses Misshapen-like kinase 1 (Homo sapiens, UniProt Q8N4C8). The class given is functional.
Experiment [15] concerns the target cAMP-dependent protein kinase catalytic subunit PRKX (Homo sapiens, UniProt P51817). The class given is functional.
Experiment [16] deals with Maternal embryonic leucine zipper kinase (Homo sapiens, UniProt Q14680). Format: functional.
The target in experiment [17] is Platelet-derived growth factor receptor alpha (Homo sapiens, UniProt P16234). In words: Navigating the Kinome. Panel member name: PDGFRA. The class given is functional.
Experiment [18] addresses Serine/threonine-protein kinase pim-2 (Homo sapiens, UniProt Q9P1W9). Format: functional.
Experiment [19] concerns the target STE20-like serine/threonine-protein kinase (Homo sapiens, UniProt Q9H2G2). Format: functional.
Experiment [20] concerns the target Fibroblast growth factor receptor 3 (Homo sapiens, UniProt P22607). Format: functional.
In experiment [21] the target is BDNF/NT-3 growth factors receptor (Homo sapiens, UniProt Q16620). Format: functional.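 Note: NTRK2 measured as one member of a broad kinome-wide kinase profiling panel.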
In experiment [22] the target is Macrophage-stimulating protein receptor (Homo sapiens, UniProt Q04912). The experiment is described as follows: Navigating the Kinome. Panel member name: MST1R. Format: functional.
Chain of Macrophage-stimulating protein receptor (Q04912 25-304 limits assumed): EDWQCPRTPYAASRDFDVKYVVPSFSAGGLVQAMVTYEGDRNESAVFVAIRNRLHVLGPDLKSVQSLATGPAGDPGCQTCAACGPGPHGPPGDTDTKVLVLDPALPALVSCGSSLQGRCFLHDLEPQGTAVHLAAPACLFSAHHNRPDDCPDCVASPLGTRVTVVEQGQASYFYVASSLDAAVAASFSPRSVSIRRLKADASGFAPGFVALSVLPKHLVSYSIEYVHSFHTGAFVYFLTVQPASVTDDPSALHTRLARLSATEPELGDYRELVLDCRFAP
Chain of Macrophage-stimulating protein receptor (Q04912 310-1400 limits assumed): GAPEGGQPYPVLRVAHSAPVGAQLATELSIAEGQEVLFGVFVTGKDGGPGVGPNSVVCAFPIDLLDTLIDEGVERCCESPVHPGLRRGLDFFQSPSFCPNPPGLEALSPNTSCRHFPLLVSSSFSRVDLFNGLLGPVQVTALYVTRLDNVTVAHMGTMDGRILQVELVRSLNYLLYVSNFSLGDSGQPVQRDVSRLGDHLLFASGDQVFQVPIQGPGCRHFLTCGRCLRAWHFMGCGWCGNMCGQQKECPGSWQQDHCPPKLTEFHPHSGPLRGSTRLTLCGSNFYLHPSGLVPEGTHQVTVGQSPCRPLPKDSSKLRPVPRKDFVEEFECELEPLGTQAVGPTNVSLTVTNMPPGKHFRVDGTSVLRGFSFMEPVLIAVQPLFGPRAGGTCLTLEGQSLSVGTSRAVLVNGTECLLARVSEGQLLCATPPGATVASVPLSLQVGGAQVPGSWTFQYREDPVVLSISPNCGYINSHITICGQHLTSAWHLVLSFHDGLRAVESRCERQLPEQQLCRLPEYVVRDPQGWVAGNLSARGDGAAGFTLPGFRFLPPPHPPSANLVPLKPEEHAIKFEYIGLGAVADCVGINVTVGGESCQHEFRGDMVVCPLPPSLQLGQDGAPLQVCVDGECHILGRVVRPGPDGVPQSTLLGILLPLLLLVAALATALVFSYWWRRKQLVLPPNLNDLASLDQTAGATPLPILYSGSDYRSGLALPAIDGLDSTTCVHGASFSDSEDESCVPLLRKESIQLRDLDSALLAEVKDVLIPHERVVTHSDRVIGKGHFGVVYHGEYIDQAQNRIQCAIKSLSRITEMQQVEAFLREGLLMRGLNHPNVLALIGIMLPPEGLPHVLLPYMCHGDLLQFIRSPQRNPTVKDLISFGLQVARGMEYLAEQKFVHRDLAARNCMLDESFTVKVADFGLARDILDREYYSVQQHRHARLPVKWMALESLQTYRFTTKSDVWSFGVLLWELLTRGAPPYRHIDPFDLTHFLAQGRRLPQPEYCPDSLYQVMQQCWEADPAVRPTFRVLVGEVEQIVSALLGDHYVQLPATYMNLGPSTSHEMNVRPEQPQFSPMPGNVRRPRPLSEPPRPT
For experiment [23], the target named is Macrophage colony-stimulating factor 1 receptor (Homo sapiens, UniProt P07333). The class given is functional.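 Note: value comes from the Navigating the Kinome screening panel, CSF1R member.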
In experiment [24] the target is Serine/threonine-protein kinase BRSK1 (Homo sapiens, UniProt Q8TDC3). Format: functional.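 Note: measured within a kinome-wide kinase panel, with the target listed as KIAA1811.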
Experiment [25] relates to HEK293. The experiment is described as follows: NOD1 signaling inhibitors, primary screen, cell-based, luminescence, uHTS (AID 1578). The class given is functional. Particulars: Homo sapiens.
In experiment [26] the target is Nucleotide-binding oligomerization domain-containing protein 2 (Homo sapiens, UniProt Q9HC29). In words: NOD2 signaling inhibitors, cell-based, luminescence, uHTS, HEK293 (AID 1566). The class given is functional.
For experiment [27], the system named is HEK293. In words: cells. The class given is functional, cell-based. The settings on record: Homo sapiens.
The target of the next experiment is T1, Leucine aminopeptidase (Plasmodium falciparum 3D7, UniProt Q8IL11).
T1 sequence (Q8IL11 whole entry): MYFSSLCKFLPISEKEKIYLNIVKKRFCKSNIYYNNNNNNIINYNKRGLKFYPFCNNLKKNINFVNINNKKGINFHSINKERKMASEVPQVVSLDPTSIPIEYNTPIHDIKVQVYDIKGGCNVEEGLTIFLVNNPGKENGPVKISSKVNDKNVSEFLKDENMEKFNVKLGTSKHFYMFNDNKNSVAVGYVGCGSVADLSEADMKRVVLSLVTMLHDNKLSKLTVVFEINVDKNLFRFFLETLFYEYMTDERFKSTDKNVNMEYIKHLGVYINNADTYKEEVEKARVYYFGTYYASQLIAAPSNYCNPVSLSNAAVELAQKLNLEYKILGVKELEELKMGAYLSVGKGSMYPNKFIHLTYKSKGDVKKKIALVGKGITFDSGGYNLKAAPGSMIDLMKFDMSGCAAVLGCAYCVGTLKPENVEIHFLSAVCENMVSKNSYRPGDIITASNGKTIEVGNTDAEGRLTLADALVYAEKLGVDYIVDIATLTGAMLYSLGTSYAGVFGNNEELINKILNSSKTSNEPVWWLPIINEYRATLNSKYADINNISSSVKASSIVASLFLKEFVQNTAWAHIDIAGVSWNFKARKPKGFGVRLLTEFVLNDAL
In words: P. falciparum M17LAP inhibitors, primary screen, biochemical, fluorogenic H-Leu-NHMec substrate, 1536-well (AID 1619). The class given is functional.

The next experiment relates to Staphylococcus aureus. The experiment is described as follows: Inhibitors of Bacterial Quorum Sensing Structure Activity Relationship (SAR) Analysis: Dose Response Assay. [Related pubchem assays: 700, 527 ]. Format: functional, organism-based.
A short description of experiment [28]: cytotoxicity in HPDE-C7 cells, cell-based, fluorescence, HTS (AID 430). Format: functional. Particulars: Homo sapiens.
Experiment [29] in a line: Concentration-dependent survival of SW480 colon cancer line, luminescence detection with CellTiter-Glo, half-maximal inhibitory concentration (AID 1117338). Format: functional. For orientation: In ATP-based viability assays light output follows the ATP content of the culture.
The nature of experiment [30]: RKO cell viability reduction, dose response, CellTiter-Glo luminescence (AID 1117322). Format: functional.
A short description of experiment [31]: half-maximal inhibitory concentration for glucagon-like peptide-1 release, STC-1 cell line, dose-response (AID 1117345). The class given is functional, cell-based.
A short description of experiment [32]: cytotoxicity toward Colo320 cells – cell-based, CellTiter-Glo luminescence, IC50, dose response (AID 1117334). Format: functional. The settings on record: COLO 320.

Calls of active or inactive are those of the source.

Chain of Misshapen-like kinase 1 (Q8N4C8 whole entry): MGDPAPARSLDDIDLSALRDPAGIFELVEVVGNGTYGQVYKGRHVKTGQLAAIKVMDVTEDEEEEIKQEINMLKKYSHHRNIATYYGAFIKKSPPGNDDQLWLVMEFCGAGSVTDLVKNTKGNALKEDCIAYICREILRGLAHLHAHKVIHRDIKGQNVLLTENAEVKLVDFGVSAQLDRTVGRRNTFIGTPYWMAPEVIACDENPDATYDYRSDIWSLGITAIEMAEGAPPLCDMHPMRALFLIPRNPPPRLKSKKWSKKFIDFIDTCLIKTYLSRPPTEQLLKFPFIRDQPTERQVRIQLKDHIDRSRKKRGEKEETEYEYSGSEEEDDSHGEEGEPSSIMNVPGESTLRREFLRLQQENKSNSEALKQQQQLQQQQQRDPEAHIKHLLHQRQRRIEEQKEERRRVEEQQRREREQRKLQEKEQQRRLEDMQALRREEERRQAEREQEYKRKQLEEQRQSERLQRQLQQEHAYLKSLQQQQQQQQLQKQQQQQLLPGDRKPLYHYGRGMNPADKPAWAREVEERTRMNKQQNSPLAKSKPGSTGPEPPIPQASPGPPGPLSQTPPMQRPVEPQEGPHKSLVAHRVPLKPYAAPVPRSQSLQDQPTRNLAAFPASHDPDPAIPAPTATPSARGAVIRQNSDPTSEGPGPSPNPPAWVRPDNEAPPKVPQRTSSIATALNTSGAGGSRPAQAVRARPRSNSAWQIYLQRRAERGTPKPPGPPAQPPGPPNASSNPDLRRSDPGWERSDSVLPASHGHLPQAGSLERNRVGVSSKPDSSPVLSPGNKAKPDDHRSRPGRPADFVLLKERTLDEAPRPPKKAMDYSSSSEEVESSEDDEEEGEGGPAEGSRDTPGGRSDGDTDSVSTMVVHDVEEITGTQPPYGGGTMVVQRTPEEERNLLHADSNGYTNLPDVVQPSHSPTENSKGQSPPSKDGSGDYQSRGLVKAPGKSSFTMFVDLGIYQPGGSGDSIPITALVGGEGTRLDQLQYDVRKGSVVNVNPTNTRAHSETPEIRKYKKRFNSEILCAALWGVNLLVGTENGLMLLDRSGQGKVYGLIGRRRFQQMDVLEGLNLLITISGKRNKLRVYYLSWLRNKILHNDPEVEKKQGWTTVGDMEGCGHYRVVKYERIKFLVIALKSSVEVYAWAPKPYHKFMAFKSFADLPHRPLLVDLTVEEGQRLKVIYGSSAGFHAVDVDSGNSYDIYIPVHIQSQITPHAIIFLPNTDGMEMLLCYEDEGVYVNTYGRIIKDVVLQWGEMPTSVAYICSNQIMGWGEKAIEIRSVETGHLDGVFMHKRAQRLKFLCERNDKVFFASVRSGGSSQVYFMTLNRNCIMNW
Chain of Casein kinase II subunit alpha (P68400 whole entry): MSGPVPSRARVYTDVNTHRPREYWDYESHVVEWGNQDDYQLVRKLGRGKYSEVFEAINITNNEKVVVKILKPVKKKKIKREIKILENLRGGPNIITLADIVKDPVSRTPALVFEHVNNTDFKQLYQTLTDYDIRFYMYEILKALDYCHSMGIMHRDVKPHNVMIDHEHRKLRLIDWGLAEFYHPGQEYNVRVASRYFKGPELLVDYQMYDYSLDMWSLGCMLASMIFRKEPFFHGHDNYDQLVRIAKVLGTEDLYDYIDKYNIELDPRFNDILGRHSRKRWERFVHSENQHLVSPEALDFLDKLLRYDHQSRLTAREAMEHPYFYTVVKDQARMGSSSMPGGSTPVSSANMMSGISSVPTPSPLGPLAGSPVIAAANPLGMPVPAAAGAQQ
Chain of Serine/threonine-protein kinase PAK 4 (O96013 whole entry): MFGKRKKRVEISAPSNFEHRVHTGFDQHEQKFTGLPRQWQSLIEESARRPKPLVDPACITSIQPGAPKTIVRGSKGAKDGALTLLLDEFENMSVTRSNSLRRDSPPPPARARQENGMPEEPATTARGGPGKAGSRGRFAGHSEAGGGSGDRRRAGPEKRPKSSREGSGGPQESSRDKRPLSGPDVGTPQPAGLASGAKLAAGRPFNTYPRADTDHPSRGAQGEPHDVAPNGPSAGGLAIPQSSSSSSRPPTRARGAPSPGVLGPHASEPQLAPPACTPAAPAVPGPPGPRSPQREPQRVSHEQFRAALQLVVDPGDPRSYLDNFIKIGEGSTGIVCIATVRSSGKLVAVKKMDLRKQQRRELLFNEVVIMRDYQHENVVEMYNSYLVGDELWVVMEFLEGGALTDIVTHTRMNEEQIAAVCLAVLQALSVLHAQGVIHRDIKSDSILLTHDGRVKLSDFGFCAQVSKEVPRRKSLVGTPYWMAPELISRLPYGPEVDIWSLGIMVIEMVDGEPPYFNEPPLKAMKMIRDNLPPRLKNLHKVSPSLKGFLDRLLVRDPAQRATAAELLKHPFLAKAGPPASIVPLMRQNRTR
Chain of cAMP-dependent protein kinase catalytic subunit PRKX (P51817 whole entry): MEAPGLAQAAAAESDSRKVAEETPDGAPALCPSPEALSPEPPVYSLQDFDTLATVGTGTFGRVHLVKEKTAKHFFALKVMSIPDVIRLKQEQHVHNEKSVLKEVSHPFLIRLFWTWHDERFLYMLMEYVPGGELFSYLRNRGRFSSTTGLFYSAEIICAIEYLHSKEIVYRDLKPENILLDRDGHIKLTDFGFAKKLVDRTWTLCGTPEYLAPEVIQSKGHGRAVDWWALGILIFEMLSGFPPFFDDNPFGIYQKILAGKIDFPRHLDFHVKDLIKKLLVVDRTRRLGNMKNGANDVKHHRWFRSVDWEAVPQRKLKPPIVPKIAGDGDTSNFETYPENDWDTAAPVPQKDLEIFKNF

Broadly, the Ki is the equilibrium dissociation constant of an inhibitor or competing ligand from its target. `N#Cc1ccc2[nH]c(O)c(-c3ccc(CN4CCOCC4)cn3)c2c1` [AZD-1080]: the Ki in experiment [1] was > 2 µM (inactive); in experiment [2] it was > 3.16 µM (inactive); in experiment [3], > 1.58 µM (inactive); in [4] it was > 5.01 µM (inactive); in [5], > 7.94 µM (inactive); in experiment [6], > 1.26 µM (inactive). For the same molecule, the Ki in [7] is > 6.31 µM (inactive); in experiment [8], > 5.01 µM (inactive); in experiment [9] it was > 1.58 µM (inactive); in experiment [10], 3.98 µM (active); in [11] it was > 2 µM (inactive); at Activated CDC42 kinase 1, > 3.98 µM (inactive). Further, the Ki in [12] was 0.398 µM (active); in [13], > 2.51 µM (inactive); in experiment [14], > 7.94 µM (inactive); on Misshapen-like kinase 1, 6.31 µM (active); in experiment [15], > 2.51 µM (inactive); in [16] it was > 1.58 µM (inactive). Further, the Ki in [17] was > 2.51 µM (inactive); in experiment [18] it was > 1.58 µM (inactive); in experiment [19] it was > 10 µM (inactive); in [20], > 2 µM (inactive); in experiment [21], > 3.98 µM (inactive); in [22], > 3.98 µM (inactive). Further, the Ki is > 2.51 µM (inactive) in [23] and > 7.94 µM (inactive) in experiment [24].
The term EC50 denotes the concentration giving half of the maximal effect. As usually defined, the IC50 is the concentration that gives 50% inhibition. On to `O=C1C=C(N2CCOCC2)c2ccccc2C1=O`, for which the figures for the EC50 (in the experiment with HEK293 [25]; in experiment [26]) were 8.79 µM (active) and 13.3 µM (active), respectively. For the same molecule, in the experiment on HEK293 [27], the IC50 was > 20 µM (inactive).
Take `CCc1oc2ccccc2c1C(=O)c1cc(Br)c(O)c(Br)c1` [BENZBROMARONE]: the IC50 is 81.9 µM (active) on Leucine aminopeptidase; 0.131 µM (active) in the experiment with Staphylococcus aureus; 1.74 µM (active) in experiment [29]; 0.131 µM (active) in [30]; > 40 µM (inactive) in [31]; > 20 µM (inactive) in experiment [32]. For the same molecule, the EC50 in [28] is 5.71 µM (active).
